Laboratory results published in patent publication US4348404A, “Antiinflammatory 4,5-diaryl-α-polyfluoroalkyl-1H-imidazole-2-methanamines” (E. I. Du Pont de Nemours and Company, priority 1981, dated 1982).
Like-named read-outs stand apart in the source and are kept apart here.

Tested on: adjuvant-induced arthritis in rats
Test: Established Adjuvant-Induced Arthritis in Rats
Format: in vivo, Lewis (Wistar) male rats
Conditions: for ED50: read-out: Adjuvant Arthritis ED50; for percent paw volume reduction at the indicated dose: oral gavage once daily for 7 days
[1] = rat, oral gavage once daily for 7 days (days 14-20), decrease from control paw volume, uninjected left hind paw, day 21, estimated from dose-response regression lines by inspection

Row | Structure (SMILES) | ED50 [1] [mg/kg] | also measured
1 | COc1ccc(-c2nc(C(N)(C(F)(F)F)C(F)(F)F)[nH]c2-c2ccc(OC)cc2)cc1 [Example 1, 4,5-Bis(4-methoxyphenyl)-α,α-di(trifluoromethyl)-1H-imidazole-2-methanamine] | 2 | 
2 | NC(c1nc(-c2ccc(F)cc2)c(-c2ccc(F)cc2)[nH]1)C(F)(F)F (stereo not drawn) [Example 2, 4,5-Bis(4-fluorophenyl)-α-trifluoromethyl-1H-imidazole-2-methanamine] | 19 | 
3 | CNC(c1nc(-c2ccc(F)cc2)c(-c2ccc(F)cc2)n1C)(C(F)(F)F)C(F)(F)F [Example 3, 4,5-Bis-(4-fluorophenyl)-N,1-dimethyl-α,α-di(trifluoromethyl)-1H-imidazole-2-methanamine] |  | percent paw volume reduction at the indicated dose (rat, @ 25 mg/kg): -41%
4 | NC(c1nc(-c2ccc(F)cc2)c(-c2ccc(F)cc2)[nH]1)(C(F)(F)F)C(F)(F)F [Example 4, 4,5-bis(4-fluorophenyl)-α,α-di(trifluoromethyl)-1H-imidazole-2-methanamine] | 1.7 | 
5 | COc1ccc(-c2nc(C(N)(C(F)(F)F)C(F)(F)F)n(C)c2-c2ccc(OC)cc2)cc1 [Example 5] |  | percent paw volume reduction at the indicated dose (rat, @ 50 mg/kg): -27%
6 | Cn1c(C(N)(C(F)(F)F)C(F)(F)F)nc(-c2ccc(F)cc2)c1-c1ccc(F)cc1 [Example 6, 4,5-bis(4-fluorophenyl)-1-methyl-α,α-di(trifluoromethyl)-1H-imidazole-2-methanamine] | 3.4 | 
7 | Cc1ccc(-c2nc(C(N)(C(F)(F)F)C(F)(F)F)[nH]c2-c2ccc(C)cc2)cc1 [Example 7] | 5.4 | 
8 | NC(c1nc(-c2ccc(Cl)cc2)c(-c2ccc(Cl)cc2)[nH]1)(C(F)(F)F)C(F)(F)F [Example 8] |  | ED50 (Rattus norvegicus, po): 7 mg/kg
9 | NC(c1nc(-c2ccccc2)c(-c2ccccc2)[nH]1)(C(F)(F)F)C(F)(F)F [Example 9] | 8 | 
